In ChEMBL document CHEMBL3045075, “Synthesis of ester and amide derivatives of 1-phenyl-3-(thiophen-3-yl)-1H-pyrazole-4-carboxylic acid and study of their anticancer activity” (Med Chem Res, 2013):
Activity calls are given as the source filed them. The rule behind the calls is not given here.

Experiments:
[1] = system: MDA-MB-231; experiment: Anticancer activity against Homo sapiens (human) MDA-MB-231 cells assessed as cell viability at 50 uM after 48 hr by MTT assay (reference value: 100%); type: functional; settings: MDA-MB-231, 48 h, read-out: Activity
[2] = system: HL-60; experiment: Growth inhibition of Homo sapiens (human) HL60 cells after 48 hr by MTT assay; type: functional, cell-based; settings: HL-60, 48 h
[3] = system: Raji; experiment: Growth inhibition of Homo sapiens (human) Raji cells after 48 hr by MTT assay; type: functional, cell-based
[4] = system: HeLa; experiment: Anticancer activity against Homo sapiens (human) HeLa cells assessed as cell viability at 50 uM after 48 hr by MTT assay (reference value: 100%); type: functional; settings: read-out: Activity
[5] = system: MCF7; experiment: Anticancer activity against Homo sapiens (human) MCF7 cells assessed as cell viability at 50 uM after 48 hr by MTT assay (reference value: 100%); type: functional; settings: MCF7, 48 h, read-out: Activity
[6] = system: HL-60; experiment: Anticancer activity against Homo sapiens (human) HL60 cells assessed as cell viability at 50 uM after 48 hr by MTT assay (reference value: 100%); type: functional; settings: HL-60, 48 h, read-out: Activity
[7] = system: MDA-MB-231; experiment: Growth inhibition of Homo sapiens (human) MDA-MB-231 cells after 48 hr by MTT assay; type: functional, cell-based
[8] = system: HeLa; experiment: Growth inhibition of Homo sapiens (human) HeLa cells after 48 hr by MTT assay; type: functional, cell-based
[9] = system: MCF7; experiment: Growth inhibition of Homo sapiens (human) MCF7 cells after 48 hr by MTT assay; type: functional, cell-based

Row | Compound | IC50 [2] [µM] | IC50 [3] [µM] | GI50 [2] [µM] | GI50 [3] [µM] | viability at 50 µM [1] [%] | viability at 50 µM [4] [%] | viability at 50 µM [5] [%] | viability at 50 µM [6] [%] | growth inhibition (GI) [7] | growth inhibition (GI) [8] | growth inhibition (GI) [9]
1 | O=C(c1cn(-c2ccccc2)nc1-c1ccsc1)N1CCOCC1 | > 100 | > 100 |  |  | 77.6 |  |  |  |  |  | 
2 | O=C(c1cn(-c2ccccc2)nc1-c1ccsc1)N1CCC(Cc2ccccc2)CC1 |  |  | 28.3 | 25.2 | 82.8 | 71.8 | 90.7 | 39.1 |  |  | 
3 | O=C(NCc1ccccc1)c1cn(-c2ccccc2)nc1-c1ccsc1 |  |  |  |  | 85 | 82.3 |  |  |  |  | 
4 | O=C(c1cn(-c2ccccc2)nc1-c1ccsc1)N1CCN(c2ccccc2)CC1 |  |  |  |  | 81.4 | 67.9 |  |  |  |  | 
5 | CC(C)c1cccc(OC(=O)c2cn(-c3ccccc3)nc2-c2ccsc2)c1 | > 100 | > 100 |  |  |  |  |  |  | inactive | inactive | inactive
6 | O=C(Oc1ccc2ccccc2c1)c1cn(-c2ccccc2)nc1-c1ccsc1 | > 100 | > 100 |  |  |  |  |  |  | inactive | inactive | inactive
7 | O=C(c1cn(-c2ccccc2)nc1-c1ccsc1)N1CCN(c2ccc(C(F)(F)F)cc2)CC1 |  |  | 36.7 | 32 | 84.2 | 80.7 | 85.9 |  |  |  | 
8 | O=C(O)c1cn(-c2ccccc2)nc1-c1ccsc1 | > 100 | > 100 |  |  | 80.9 |  |  |  |  |  | 

Second part, led by results:

Row | IC50 [2] [µM] | IC50 [3] [µM] | GI50 [2] [µM] | GI50 [3] [µM] | Compound | viability at 50 µM [1] [%] | viability at 50 µM [4] [%] | viability at 50 µM [5] [%] | viability at 50 µM [6] [%] | growth inhibition (GI) [7] | growth inhibition (GI) [8] | growth inhibition (GI) [9]
9 | > 100 | > 100 |  |  | CCc1ccc(OC(=O)c2cn(-c3ccccc3)nc2-c2ccsc2)cc1 |  |  |  |  | inactive | inactive | inactive
10 | > 100 | > 100 |  |  | CN1CCN(C(=O)c2cn(-c3ccccc3)nc2-c2ccsc2)CC1 |  |  |  |  |  |  | 
11 | > 100 | > 100 |  |  | Cc1cccc(C(C)C)c1OC(=O)c1cn(-c2ccccc2)nc1-c1ccsc1 |  |  |  |  | inactive | inactive | inactive
12 | > 100 | > 100 |  |  | O=C(Oc1ccc(-c2ccccc2)cc1)c1cn(-c2ccccc2)nc1-c1ccsc1 |  |  |  |  | inactive | inactive | inactive
13 | > 100 | > 100 |  |  | O=C(c1cn(-c2ccccc2)nc1-c1ccsc1)N1CCN(c2ccncc2)CC1 | 87.4 |  |  |  |  |  | 
14 | > 100 | > 100 |  |  | COc1ccc(OC(=O)c2cn(-c3ccccc3)nc2-c2ccsc2)cc1 |  |  |  |  | inactive | inactive | inactive
